Source: patent US8937089B2, “Synergistic mixtures of anthranilamide invertebrate pest control agents” (priority 2004, dated 2015)

What was measured:
Assay in all cases: whole plant or invertebrate
Format in all cases: in vivo
[1] = test system: silverleaf whitefly (Bemisia argentifolii Bellows and Perring); conditions: Table 2B
Description: For evaluating control of silverleaf whitefly (Bemisia argentifolii Bellows and Perring) through contact and/or systemic means, each test unit consisted of a small open container with a 12- to 14-day-old cotton plant inside. This was pre-infested by placing test units into cages infested with adult whiteflies so that oviposition on the cotton leaves could occur. The adults were removed from the plants with an air-blast nozzle, and the test units were capped. The test units were then stored 2 to 3 days before spraying.
(§1) Test compounds were formulated using a solution containing 10% acetone, 90% water and 300 ppm X-77® Spreader Lo-Foam Formula non-ionic surfactant containing alkylarylpolyoxyethylene, free fatty acids, glycols and 2-propanol (Loveland Industries, Inc.) to provide the desired concentration in ppm. Formulated test solutions were then applied in 1 mL volumes through a SUJ2 atomizer nozzle with 1/8 JJ custom body (Spraying Systems Co.) positioned 1.27 cm (0.5 inches) above the top of each test unit.
The results for all experimental compositions in this test were replicated three times. After spraying of the formulated test composition, each test unit was allowed to dry for 1 hour and the cap removed. The test units were held for 13 days in a growth chamber at 28° C. and 50-70% relative humidity.

[2] = test system: western flower thrip (Frankliniella occidentalis Pergande); conditions: single compound, spray, 7 days
Procedure: as §1
For evaluating control of the western flower thrip (Frankliniella occidentalis Pergande) through contact and/or systemic means, each test unit consisted of a small open container with a 5- to 7-day-old bean (var. Soleil) plant inside.
Test solutions were formulated and sprayed with 3 replications as described for Test A. After spraying, the test units were allowed to dry for 1 hour, 22 to 27 adult thrips were added to each unit and then a black, screened cap was placed on top. The test units were held for 7 days at 25° C. and 45-55% relative humidity.

[3] = test system: potato leafhopper (Empoasca fabae Harris); conditions: alone
Procedure: as §1
[…] White sand was added to the top of the soil, and one of the primary leaves was excised prior to application. Test compounds were formulated and sprayed with 3 replications as described for Test A. After spraying, the test units were allowed to dry for 1 hour before they were infested with 5 potato leafhoppers (18- to 21-day-old adults). A black, screened cap was placed on the top of each container. The test units were held for 6 days in a growth chamber at 19-21° C. and 50-70% relative humidity.

[4] = test system: corn planthopper (Peregrines maidis); conditions: Corn Plant Hopper; for mortality at 100 ppm: rate 100 ppm; for mortality at 1000 ppm: rate 1000 ppm
Procedure: as §1
For evaluating control of corn planthopper (Peregrines maidis) through contact and/or systemic means, each test unit consisted of a small open cylindrical container with a 3- to 4-day-old corn (maize) plant (spike) inside. White sand was added to the top of the soil prior to application. Test compounds were formulated and sprayed with 3 replications as described for Test A. After spraying, the test units were allowed to dry for 1 hour before they were post-infested with 10 to 20 corn planthoppers (18- to 20-day-old nymphs) by sprinkling them onto the sand with a salt shaker. A black, screened cap was placed on the top of each container. The test units were held for 6 days in a growth chamber at 19-21° C. and 50-70% relative humidity.

[5] = test system: cotton melon aphid (Aphis gossypii Glover)
Procedure: as §1
(§2) For evaluating control of cotton melon aphid (Aphis gossypii Glover) through contact and/or systemic means, each test unit consisted of a small open container with a 6- to 7-day-old cotton plant inside. This was pre-infested by placing on a leaf of the test plant 30 to 40 aphids on a piece of leaf excised from a culture plant (cut-leaf method). The larvae moved onto the test plant as the leaf piece desiccated. After pre-infestation, the soil of the test unit was covered with a layer of sand.
(§3) Test compounds were formulated and sprayed as described for Test A. The applications were replicated three times. After spraying of the formulated test compounds, each test unit was allowed to dry for 1 hour and then a black, screened cap was placed on top. The test units were held for 6 days in a growth chamber at 19-21° C. and 50-70% relative humidity.

[6] = test system: green peach aphid (Myzus persicae Sulzer); conditions: Green Peach Aphid; for mortality at 100 ppm: rate 100 ppm; for mortality at 1000 ppm: rate 1000 ppm
Procedure: as §1
as §2, with “green peach” for “cotton melon”, “(Myzus persicae Sulzer)” for “(Aphis gossypii Glover)”, “12-” for “6-”, “15-day-old radish” for “7-day-old cotton”
as §3, with “described in” for “described for”, “Test A,” for “Test A. The applications were”, “test compound,” for “test compounds,”

[7] = Frankliniella occidentalis, 168 h, rate 100 ppm, read-out: % mortality (obs)
[8] = Myzus persicae, in Raphanus sativus, read-out: % mortality (obs)

COc1cccc(C(=O)NN(C(=O)c2cc(C)cc(C)c2)C(C)(C)C)c1C [Methoxyfenozide]
mortality at 2 ppm ([1]; Bemisia argentifolii, in Gossypium hirsutum, rate 2 ppm, read-out: % mortality (obs)): 1% | mortality at 10 ppm ([1]; Bemisia argentifolii, in Gossypium hirsutum, rate 10 ppm, read-out: % mortality (obs)): 2% | mortality at 50 ppm ([1]; Bemisia argentifolii, in Gossypium hirsutum, rate 50 ppm, read-out: % mortality (obs)): 1% | mortality at 10 ppm ([2]; Frankliniella occidentalis, 168 h, rate 10 ppm, read-out: % mortality (obs)): 60% | mortality at 100 ppm [2, 7]: 60% | mortality at 500 ppm ([2]; Frankliniella occidentalis, 168 h, rate 500 ppm, read-out: % mortality (obs)): 60% | mortality at 0.08 ppm ([3]; Empoasca fabae, rate 0.08 ppm, read-out: % mortality (obs)): 13% | mortality at 0.4 ppm ([3]; Empoasca fabae, rate 0.4 ppm, read-out: % mortality (obs)): 13% | mortality at 2 ppm ([3]; Empoasca fabae, rate 2 ppm, read-out: % mortality (obs)): 20% | mortality at 10 ppm ([4]; rate 10 ppm, read-out: % mortality (obs)): 7% | mortality at 100 ppm ([4]; read-out: % mortality (obs)): 2% | mortality at 1000 ppm ([4]; read-out: % mortality (obs)): 10% | mortality at 5 ppm ([5]; Aphis gossypii, rate 5 ppm, read-out: % mortality (obs)): 32% | mortality at 50 ppm ([5]; Aphis gossypii, rate 50 ppm, read-out: % mortality (obs)): 54% | mortality at 500 ppm ([5]; Aphis gossypii, rate 500 ppm, read-out: % mortality (obs)): 38% | mortality at 10 ppm ([6]; Myzus persicae, in Raphanus sativus, rate 10 ppm, read-out: % mortality (obs)): 7% | mortality at 100 ppm [6, 8]: 17% | mortality at 1000 ppm [6, 8]: 6%

CCN(Cc1ccc(Cl)nc1)/C(=C/[N+](=O)[O-])NC [Nitenpyram]
% mortality (obs) ([1]; rate 20 ppm): 53% | % mortality (obs) ([1]; rate 30 ppm): 84% | % mortality (obs) ([1]; rate 40 ppm): 85% | % mortality (obs) ([2]; rate 5 ppm): 20% | % mortality (obs) ([2]; rate 50 ppm): 50% | % mortality (obs) ([2]; rate 500 ppm): 80% | % mortality (obs) ([3]; rate 0.3 ppm): 7% | % mortality (obs) ([3]; rate 0.4 ppm): 73% | % mortality (obs) ([3]; rate 0.5 ppm): 33% | % mortality (obs) ([4]; rate 0.1 ppm): 27% | % mortality (obs) ([4]; rate 0.2 ppm): 100% | % mortality (obs) ([4]; rate 0.3 ppm): 100% | % mortality (obs) ([5]; rate 0.2 ppm): 29% | % mortality (obs) ([5]; rate 0.4 ppm): 49% | % mortality (obs) ([5]; rate 0.6 ppm): 71% | % mortality (obs) ([6]; rate 0.2 ppm): 7% | % mortality (obs) ([6]; rate 0.4 ppm): 17% | % mortality (obs) ([6]; rate 0.6 ppm): 40%

CCc1ccc(C(=O)NN(C(=O)c2cc(C)cc(C)c2)C(C)(C)C)cc1 [Tebufenozide]
mortality at 100 ppm ([1]; Bemisia argentifolii, in Gossypium hirsutum, rate 100 ppm, read-out: % mortality (obs)): 2% | mortality at 1000 ppm ([1]; Bemisia argentifolii, in Gossypium hirsutum, rate 1000 ppm, read-out: % mortality (obs)): 6% | mortality at 3000 ppm ([1]; Bemisia argentifolii, in Gossypium hirsutum, rate 3000 ppm, read-out: % mortality (obs)): 7% | mortality at 100 ppm [2, 7]: 70% | mortality at 1000 ppm ([2]; Frankliniella occidentalis, 168 h, rate 1000 ppm, read-out: % mortality (obs)): 60% | mortality at 3000 ppm ([2]; Frankliniella occidentalis, 168 h, rate 3000 ppm, read-out: % mortality (obs)): 60% | mortality at 3 ppm ([3]; Empoasca fabae, rate 3 ppm, read-out: % mortality (obs)): 40% | mortality at 4 ppm ([3]; Empoasca fabae, rate 4 ppm, read-out: % mortality (obs)): 27% | mortality at 5 ppm ([3]; Empoasca fabae, rate 5 ppm, read-out: % mortality (obs)): 20% | mortality at 100 ppm ([4]; read-out: % mortality (obs)): 12% | mortality at 1000 ppm ([4]; read-out: % mortality (obs)): 16% | mortality at 3000 ppm ([4]; rate 3000 ppm, read-out: % mortality (obs)): 12% | mortality at 0.5 ppm ([5]; Aphis gossypii, rate 0.5 ppm, read-out: % mortality (obs)): 21% | mortality at 1.5 ppm ([5]; Aphis gossypii, rate 1.5 ppm, read-out: % mortality (obs)): 37% | mortality at 3 ppm ([5]; Aphis gossypii, rate 3 ppm, read-out: % mortality (obs)): 22% | mortality at 100 ppm [6, 8]: 8% | mortality at 1000 ppm [6, 8]: 7% | mortality at 3000 ppm ([6]; Myzus persicae, in Raphanus sativus, rate 3000 ppm, read-out: % mortality (obs)): 9%

CS/C(C)=N\OC(=O)N(C)SN(C)C(=O)O/N=C(\C)SC [Thiodicarb]
% mortality (obs) ([1]; rate 100 ppm): 1% | % mortality (obs) ([1]; rate 1000 ppm): 0% | % mortality (obs) ([1]; rate 3000 ppm): 6% | % mortality (obs) ([2]; rate 20 ppm): 60% | % mortality (obs) ([2]; rate 200 ppm): 80% | % mortality (obs) ([3]; rate 0.08 ppm): 0% | % mortality (obs) ([3]; rate 0.16 ppm): 20% | % mortality (obs) ([3]; rate 0.4 ppm): 20% | % mortality (obs) ([4]; rate 0.08 ppm): 2% | % mortality (obs) ([4]; rate 0.16 ppm): 6% | % mortality (obs) ([4]; rate 0.4 ppm): 7% | % mortality (obs) ([5]; rate 3 ppm): 49% | % mortality (obs) ([5]; rate 10 ppm): 32% | % mortality (obs) ([5]; rate 30 ppm): 69% | % mortality (obs) ([6]; rate 20 ppm): 10% | % mortality (obs) ([6]; rate 150 ppm): 17% | % mortality (obs) ([6]; rate 900 ppm): 98%

Acetamiprid
% mortality (obs) ([1]; rate 1 ppm): 3% | % mortality (obs) ([1]; rate 5 ppm): 45% | % mortality (obs) ([1]; rate 20 ppm): 83% | % mortality (obs) ([2]; rate 1 ppm): 70% | % mortality (obs) ([2]; rate 100 ppm): 90% | % mortality (obs) ([2]; rate 3000 ppm): 100% | % mortality (obs) ([3]; rate 1 ppm): 27% | % mortality (obs) ([3]; rate 4 ppm): 60% | % mortality (obs) ([3]; rate 12 ppm): 87% | % mortality (obs) ([4]; rate 0.3 ppm): 43% | % mortality (obs) ([4]; rate 0.4 ppm): 85% | % mortality (obs) ([4]; rate 0.5 ppm): 100% | % mortality (obs) ([5]; rate 0.02 ppm): 42% | % mortality (obs) ([5]; rate 0.08 ppm): 67% | % mortality (obs) ([5]; rate 0.4 ppm): 100% | % mortality (obs) ([6]; rate 0.2 ppm): 27% | % mortality (obs) ([6]; rate 0.4 ppm): 52% | % mortality (obs) ([6]; rate 0.6 ppm): 46%

Cartap
% mortality (obs) ([1]; rate 0.1 ppm): 0% | % mortality (obs) ([1]; rate 0.2 ppm): 0% | % mortality (obs) ([1]; rate 0.5 ppm): 0% | % mortality (obs) ([2]; rate 1 ppm): 40% | % mortality (obs) ([2]; rate 1000 ppm): 100% | % mortality (obs) ([2]; rate 3000 ppm): 100% | % mortality (obs) ([3]; rate 0.1 ppm): 20% | % mortality (obs) ([3]; rate 1 ppm): 73% | % mortality (obs) ([3]; rate 10 ppm): 100% | % mortality (obs) ([4]; rate 0.3 ppm): 100% | % mortality (obs) ([4]; rate 3 ppm): 100% | % mortality (obs) ([4]; rate 30 ppm): 100% | % mortality (obs) ([5]; rate 0.2 ppm): 29% | % mortality (obs) ([5]; rate 2 ppm): 34% | % mortality (obs) ([5]; rate 200 ppm): 83% | % mortality (obs) ([6]; rate 0.2 ppm): 11% | % mortality (obs) ([6]; rate 0.4 ppm): 26% | % mortality (obs) ([6]; rate 0.6 ppm): 17%
